In ChEMBL document CHEMBL1150224, “Antioxidant benzoylated flavan-3-ol glycoside from Celastrus orbiculatus” (J Nat Prod, 2001):
In brackets after ≈: the same amount, converted by molar mass.

System: Radical scavenging activity
Test: Antioxidant activity assessed as DPPH radical scavenging activity
Type: functional

Row | Compound | IC50 [µg/mL]
1 | O=C(O[C@@H]1Cc2c(O[C@@H]3O[C@H](CO)[C@@H](O)[C@H](O)[C@H]3O)cc(O)cc2O[C@@H]1c1ccc(O)c(O)c1)c1ccccc1 | 25 (≈ 44.9 µM)
2 | O=C(O[C@@H]1Cc2c(O)cc(O)cc2O[C@@H]1c1ccc(O)c(O)c1)c1ccccc1 | 17 (≈ 43.1 µM)
3 | Oc1cc(O)c2c(c1)O[C@H](c1ccc(O)c(O)c1)[C@H](O)C2 [(-)-EPICATECHIN] | 8.5 (≈ 29.3 µM)
4 | COc1ccc(O)c(C(C)(C)C)c1.COc1ccc(O)cc1C(C)(C)C [BUTYLATED HYDROXYANISOLE] | 4.5
5 | Oc1ccc([C@H]2Oc3cc(O)cc(O)c3C[C@H]2O)cc1 [EPIAFZELECHIN (2R,3R)(-)] | 7.5 (≈ 27.3 µM)
6 | O=C(O[C@@H]1Cc2c(O)cc(O)cc2O[C@@H]1c1cc(O)c(O)c(O)c1)c1cc(O)c(O)c(O)c1 [EPIGALOCATECHIN GALLATE] | 5.6 (≈ 12.2 µM)
7 | VITAMIN E | 6.2
